Laboratory results taken from paper PMC3328272, “HIV-1 Nef interaction influences the ATP-binding site of the Src-family kinase, Hck” (BMC Chemical Biology, 2012).

Legend:
[1] = biological target: similarly modified Hck SH3 domain; conditions: ITC; read-out: interaction (KD) with a similarly modified Hck SH3 domain via ITC; cited from earlier work
mHck-TA [2] = biological target: T1, mHck-TA (Mus musculus, UniProt P08103, Q521E/Q522E/Q523I/T331A); assay: Nef-induced kinase activation over kinase:Nef ratios (Z'-Lyte); type: biochemical
T1 construct: the N-terminal unique domain was replaced with a hexahistidine tag; hexahistidine (N); made in house; host or cells: Sf9 insect cells (baculovirus)
T1 sequence (P08103 76-524 T331A/Q521E/Q522E/Q523I limits assumed): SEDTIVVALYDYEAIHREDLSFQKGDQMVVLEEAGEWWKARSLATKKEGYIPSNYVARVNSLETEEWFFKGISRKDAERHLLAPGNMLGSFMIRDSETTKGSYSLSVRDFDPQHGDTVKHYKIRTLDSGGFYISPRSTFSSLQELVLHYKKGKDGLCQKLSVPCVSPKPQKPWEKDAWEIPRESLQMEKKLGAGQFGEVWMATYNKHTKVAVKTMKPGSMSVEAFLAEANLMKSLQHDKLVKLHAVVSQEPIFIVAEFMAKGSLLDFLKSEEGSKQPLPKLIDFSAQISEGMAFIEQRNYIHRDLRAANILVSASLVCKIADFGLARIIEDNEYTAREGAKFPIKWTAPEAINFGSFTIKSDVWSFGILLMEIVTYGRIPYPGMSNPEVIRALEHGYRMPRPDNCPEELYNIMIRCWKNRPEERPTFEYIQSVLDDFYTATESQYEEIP
Experimental: (§1) Protein-tyrosine kinase assays were performed using the FRET-based Z'-Lyte kinase assay kit and Tyr-2 peptide substrate according to the manufacturer's instructions (Life Technologies) and our previous work. All assays were performed in quadruplicate in low-volume, non-binding 384-well plates (Corning). […] The Km for ATP was then calculated from a plot of ATP concentration against initial reaction velocity followed by non-linear regression analysis (GraphPad Prism). […] Development reagent was then added to the reaction for an additional 1 h at room temperature, followed by addition of the stop reagent. Fluorescence was assessed at an excitation wavelength of 400 nm; coumarin fluorescence and the fluorescein FRET signal were monitored at 445 and 520 nm, respectively. […] Raw fluorescence values were corrected for background, and reaction endpoints calculated as emission ratios of coumarin fluorescence divided by the fluorescein FRET signal. […] IC50 values were calculated using a sigmoidal curve fit using GraphPad Prism. […]
(§2) To determine the impact of the SH3-HART modification in the context of near full-length Hck, we next introduced the HART coding sequence into mHck-TA. […] This observation fits with the smaller enhancement in SH3-HART binding to Nef-Consensus as determined by SPR. […]

mHck-TA-HART [3] = biological target: T2, mHck-TA-HART (Mus musculus, UniProt P08103, A89S/E88T/E93W/H91F/I90P/Q521E/Q522E/Q523I/R92P/T331A); assay: as above; type: biochemical
T2 construct: the N-terminal unique domain was replaced with a hexahistidine tag; hexahistidine (N); made in house; host or cells: Sf9 insect cells (baculovirus)
T2 sequence (P08103 76-524 E88T/A89S/I90P/H91F/R92P/E93W/T331A/Q521E/Q522E/Q523I): as the sequence (P08103 76-524 T331A/Q521E/Q522E/Q523I limits assumed) above, with E13T, A14S, I15P, H16F, R17P, E18W counted along it
Experimental: as §1, §2

Mouse Hck HART = biological target: T3, Mouse Hck HART (Mus musculus, UniProt P08103, A89S/E88T/E93W/H91F/I90P/R92P); assay: Surface plasmon resonance (SPR), Nef binding to immobilized SH3 domain
T3 construct: made in house; host or cells: E. coli BL21(DE3)pLysS
T3 sequence (P08103 76-136 E88T/A89S/I90P/H91F/R92P/E93W limits assumed): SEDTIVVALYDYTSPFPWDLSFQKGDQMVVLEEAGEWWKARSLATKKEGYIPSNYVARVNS
Experimental: (§3) Recombinant Hck SH3 domain proteins were exchanged into HBS-EP buffer (10 mM HEPES, pH 7.4, 150 mM NaCl, 3 mM EDTA, 0.05% v/v P20 surfactant) and concentrated with an Amicon Ultra 15 ml 3 kDa molecular weight cutoff spin concentrator. Primary untagged Nef proteins were exchanged into HBS-EPD buffer (10 mM HEPES, pH 7.4, 150 mM NaCl, 3 mM EDTA, 0.05% v/v P20 surfactant, 1 mM DTT) and concentrated with an Amicon Ultra 15 ml 10 kDa molecular weight cutoff spin concentrator. SPR analysis was performed on a BIAcore 3000 instrument (GE Healthcare) using a four-channel CM5 biosensor chip with the Hck SH3 domains covalently attached as ligand via standard amine coupling chemistry. […] The initial binding reaction was followed by dissociation for 5 min, and the chip surface was regenerated using HBS-EPD buffer at a flow rate of 30 μl/min for 10 min. Binding curves recorded at each analyte concentration were assessed in triplicate, corrected for buffer effects, and fit to a 1:1 Langmuir binding model using the BIAevaluation 4.1 software suite (GE Healthcare).

Mouse Hck SH3 = biological target: T4, Mouse Hck SH3 (Mus musculus, UniProt P08103); assay: as above; conditions: 1:1 Langmuir model
T4 construct: made in house; host or cells: E. coli BL21(DE3)pLysS
T4 sequence (P08103 76-136 limits assumed): as the sequence (P08103 76-136 E88T/A89S/I90P/H91F/R92P/E93W limits assumed) above, with T13E, S14A, P15I, F16H, P17R, W18E counted along it
Experimental: as §3

Human Hck SH3 = biological target: T5, Human Hck SH3 (Homo sapiens, UniProt P08631); assay: as above; conditions: 1:1 Langmuir model
T5 construct: made in house; host or cells: E. coli BL21(DE3)pLysS
T5 sequence (P08631 78-138 limits assumed): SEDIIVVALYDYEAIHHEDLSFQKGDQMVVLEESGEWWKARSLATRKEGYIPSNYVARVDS
Experimental: as §3

mHck-TA-HART + Nef-SF2 = biological target: T6, mHck-TA-HART + Nef-SF2 (Mus musculus, UniProt P08103, A89S/E88T/E93W/H91F/I90P/Q521E/Q522E/Q523I/R92P/T331A); type: biochemical
T6 construct: the N-terminal unique domain was replaced with a hexahistidine tag; hexahistidine (N); made in house; host or cells: Hck: Sf9 insect cells; Nef: E. coli
T6 sequence (P08103 whole entry E88T/A89S/I90P/H91F/R92P/E93W/T331A/Q521E/Q522E/Q523I, looked up, the tested form may be a part): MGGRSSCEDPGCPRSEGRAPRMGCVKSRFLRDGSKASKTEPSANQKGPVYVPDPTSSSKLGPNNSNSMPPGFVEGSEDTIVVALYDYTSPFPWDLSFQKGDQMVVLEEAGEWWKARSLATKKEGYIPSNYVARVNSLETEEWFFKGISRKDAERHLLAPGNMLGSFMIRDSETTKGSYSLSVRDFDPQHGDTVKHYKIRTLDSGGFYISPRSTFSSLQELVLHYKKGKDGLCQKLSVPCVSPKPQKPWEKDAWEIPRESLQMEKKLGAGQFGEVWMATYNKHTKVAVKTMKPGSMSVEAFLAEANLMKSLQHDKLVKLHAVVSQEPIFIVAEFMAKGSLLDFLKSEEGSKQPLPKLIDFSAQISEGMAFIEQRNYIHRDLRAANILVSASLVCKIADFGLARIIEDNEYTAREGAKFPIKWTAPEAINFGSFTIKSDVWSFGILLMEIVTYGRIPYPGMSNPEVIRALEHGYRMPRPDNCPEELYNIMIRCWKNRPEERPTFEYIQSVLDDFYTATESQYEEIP
Experimental: (§4) Protein-tyrosine kinase assays were performed using the FRET-based Z'-Lyte kinase assay kit and Tyr-2 peptide substrate according to the manufacturer's instructions (Life Technologies) and our previous work. All assays were performed in quadruplicate in low-volume, non-binding 384-well plates (Corning). […] The Km for ATP was then calculated from a plot of ATP concentration against initial reaction velocity followed by non-linear regression analysis (GraphPad Prism). […] Development reagent was then added to the reaction for an additional 1 h at room temperature, followed by addition of the stop reagent. Fluorescence was assessed at an excitation wavelength of 400 nm; coumarin fluorescence and the fluorescein FRET signal were monitored at 445 and 520 nm, respectively. Reactions run in the absence of ATP served as the 0% phosphorylation control, whereas a stoichiometrically phosphorylated Tyr2 peptide was used as the 100% phosphorylation control. Raw fluorescence values were corrected for background, and reaction endpoints calculated as emission ratios of coumarin fluorescence divided by the fluorescein FRET signal. These ratios were normalized to the ratio obtained with the 100% phosphorylation control peptide. IC50 values were calculated using a sigmoidal curve fit using GraphPad Prism. Additional details of the Z'-Lyte assay principle and calculation of percent inhibition has been described elsewhere.

mHck-TA [4] = biological target: T1, mHck-TA; assay: Z'-Lyte in vitro kinase assay, mHck-TA alone; type: biochemical; conditions: read-out: Km, ATP
Experimental: as §4, with “Additional details of the Z'-Lyte assay principle and calculation of percent inhibition has been described elsewhere.” left out

mHck-TA + Nef-Consensus = biological target: T7, mHck-TA + Nef-Consensus (Mus musculus, UniProt P08103, Q521E/Q522E/Q523I/T331A); assay: Z'-Lyte in vitro kinase assay, mHck-TA + Nef-Consensus; type: biochemical; conditions: Nef at 10-fold molar excess, read-out: Km, ATP
T7 construct: the N-terminal unique domain was replaced with a hexahistidine tag; hexahistidine (N); made in house; host or cells: Hck: Sf9 insect cells; Nef: E. coli
T7 sequence (P08103 76-524 T331A/Q521E/Q522E/Q523I limits assumed): as the sequence (P08103 76-524 T331A/Q521E/Q522E/Q523I limits assumed) above
Experimental: as §4, with “Additional details of the Z'-Lyte assay principle and calculation of percent inhibition has been described elsewhere.” left out

mHck-HART = test system: T8, mHck-HART; assay: Z'-Lyte in vitro kinase assay, mHck-HART alone; type: biochemical, mouse; conditions: read-out: Km, ATP
T8 construct: the N-terminal unique domain was replaced with a hexahistidine tag; hexahistidine (N); made in house; host or cells: Sf9 insect cells (baculovirus)
Experimental: as §4, with “Additional details of the Z'-Lyte assay principle and calculation of percent inhibition has been described elsewhere.” left out

[5] = biological target: mHck-TA-HART + Nef-Consensus (Mus musculus, UniProt P08103, A89S/E88T/E93W/H91F/I90P/Q521E/Q522E/Q523I/R92P/T331A); assay: Z'-Lyte in vitro kinase assay, mHck-TA-HART + Nef-Consensus; type: biochemical
Chain of mHck-TA-HART + Nef-Consensus (P08103 76-524 E88T/A89S/I90P/H91F/R92P/E93W/T331A/Q521E/Q522E/Q523I): as the sequence (P08103 76-524 T331A/Q521E/Q522E/Q523I limits assumed) above, with E13T, A14S, I15P, H16F, R17P, E18W counted along it
Experimental: as §4, with “Additional details of the Z'-Lyte assay principle and calculation of percent inhibition has been described elsewhere.” left out

mHck-TA-HART [6] = biological target: T2, mHck-TA-HART; assay: Z'-Lyte in vitro kinase assay, mHck-TA-HART alone; type: biochemical; conditions: read-out: Km, ATP
Experimental: as §4, with “Additional details of the Z'-Lyte assay principle and calculation of percent inhibition has been described elsewhere.” left out

mHck-TA + Nef-SF2 = biological target: T9, mHck-TA + Nef-SF2 (Mus musculus, UniProt P08103, Q521E/Q522E/Q523I/T331A); assay: Z'-Lyte in vitro kinase assay, mHck-TA + Nef-SF2; type: biochemical; conditions: mHck-TA + Nef-SF2, Nef at 10-fold molar excess; read-out: Km, ATP
T9 construct: the N-terminal unique domain was replaced with a hexahistidine tag; hexahistidine (N); made in house; host or cells: Hck: Sf9 insect cells; Nef: E. coli
T9 sequence (P08103 76-524 T331A/Q521E/Q522E/Q523I limits assumed): as the sequence (P08103 76-524 T331A/Q521E/Q522E/Q523I limits assumed) above
Experimental: as §4, with “Additional details of the Z'-Lyte assay principle and calculation of percent inhibition has been described elsewhere.” left out

mHck = biological target: T10, mHck (Mus musculus, UniProt P08103, Q521E/Q522E/Q523I); assay: Z'-Lyte in vitro kinase assay, mHck alone; type: biochemical; conditions: read-out: Km, ATP
T10 construct: the N-terminal unique domain was replaced with a hexahistidine tag; hexahistidine (N); made in house; host or cells: Sf9 insect cells (baculovirus)
T10 sequence (P08103 76-524 Q521E/Q522E/Q523I): as the sequence (P08103 76-524 T331A/Q521E/Q522E/Q523I limits assumed) above, with A256T counted along it
Experimental: as §4, with “Additional details of the Z'-Lyte assay principle and calculation of percent inhibition has been described elsewhere.” left out

mHck-HART + Nef-SF2 = test system: T11, mHck-HART + Nef-SF2; assay: Z'-Lyte in vitro kinase assay, mHck-HART + Nef-SF2; type: biochemical, mouse; conditions: mHck-HART + Nef-SF2, Nef at 10-fold molar excess; read-out: Km, ATP
T11 construct: the N-terminal unique domain was replaced with a hexahistidine tag; hexahistidine (N); made in house; host or cells: Hck: Sf9 insect cells; Nef: E. coli
Experimental: as §4, with “Additional details of the Z'-Lyte assay principle and calculation of percent inhibition has been described elsewhere.” left out

mHck + Nef-SF2 = biological target: T12, mHck + Nef-SF2 (Mus musculus, UniProt P08103, Q521E/Q522E/Q523I); assay: Z'-Lyte in vitro kinase assay, mHck + Nef-SF2; type: biochemical; conditions: mHck + Nef-SF2, Nef at 10-fold molar excess; read-out: Km, ATP
T12 construct: the N-terminal unique domain was replaced with a hexahistidine tag; hexahistidine (N); made in house; host or cells: Hck: Sf9 insect cells; Nef: E. coli
T12 sequence (P08103 76-524 Q521E/Q522E/Q523I): as the sequence (P08103 76-524 T331A/Q521E/Q522E/Q523I limits assumed) above, with A256T counted along it
Experimental: as §4, with “Additional details of the Z'-Lyte assay principle and calculation of percent inhibition has been described elsewhere.” left out

[7] = HART vs wild-type mouse SH3 domain
[8] = Mouse Hck HART SH3 immobilized, 1:1 Langmuir model
[9] = mHck-TA-HART with Nef-SF2 vs alone

Nef-SF2: recombinant HIV-1 Nef protein, B-clade allele SF2, expressed in E. coli
Kd [1]: 0.012 µM
excess of Nef required for full activation (mHck-TA [2]): 5 fold
kinase:Nef ratio at maximal activation (mHck-TA-HART [3]): 1 to 1
enhancement of affinity by introduction of the HART sequence (Mouse Hck HART; [7]): 13 fold
increase in the association rate constant with SH3-HART (Mouse Hck HART; [7]): 2.5 fold
change in the dissociation rate constant with SH3-HART (Mouse Hck HART; HART vs wild-type mouse SH3 domain, decrease for Nef-SF2, essentially unchanged for Nef-Consensus): ~5 fold
Kd (Mouse Hck HART; [8]): 0.01 µM
ka (Mouse Hck HART; [8]): 14.20 ± 1.40 M^-1s^-1 × 10^5
kd (Mouse Hck HART; [8]): 1.43 ± 0.01 s^-1 × 10^-2
Kd (Mouse Hck SH3): 0.13 ± 0.03 µM
ka (Mouse Hck SH3): 5.54 ± 1.77 M^-1s^-1 × 10^5
kd (Mouse Hck SH3): 7.00 ± 0.36 s^-1 × 10^-2
Kd (Human Hck SH3): 0.07 ± 0.01 µM
ka (Human Hck SH3): 1.60 ± 0.06 M^-1s^-1 × 10^5
kd (Human Hck SH3): 1.18 ± 0.04 s^-1 × 10^-2

CC(C)(C)n1nc(-c2cccc3ccccc23)c2c(N)ncnc21 [NaPP1, reference compound]
increase in sensitivity to inhibition by NaPP1 in the presence of Nef (mHck-TA-HART + Nef-SF2; [9]): more than three-fold

Nc1ncnc2c1ncn2[C@@H]1O[C@H](COP(=O)(O)OP(=O)(O)OP(=O)(O)O)[C@@H](O)[C@H]1O [ATP]
Km (mHck-TA [4]): 62 ± 12.6 µM
Km (mHck-TA + Nef-Consensus): 84 ± 3.5 µM
Km (mHck-HART): 105 ± 29 µM
Km ([5]; mHck-TA-HART + Nef-Consensus, Nef at 10-fold molar excess, read-out: Km, ATP): 76 ± 23.1 µM
reduction of the Km for ATP in the presence of Nef ([5]; mHck-TA-HART with Nef-Consensus vs alone): ~ 2.5 fold
Km (mHck-TA-HART [6]): 181 ± 28.7 µM
Km (mHck-TA + Nef-SF2): 68 ± 10.7 µM
Km (mHck): 12.1 ± 2 µM
Km (mHck-HART + Nef-SF2): 49.3 ± 5.8 µM
Km (mHck + Nef-SF2): 14.8 ± 1.4 µM
Km (mHck-TA-HART + Nef-SF2; mHck-TA-HART + Nef-SF2, Nef at 10-fold molar excess, read-out: Km, ATP): 69 ± 17.6 µM
reduction of the Km for ATP in the presence of Nef (mHck-TA-HART + Nef-SF2; [9]): ~ 2.5 fold
